Data published in patent EP0112419A1, “Pharmacologically active naphthotriazole derivatives” (BEECHAM GROUP PLC, priority 1982, dated 1984).

System: rat passive peritoneal anaphylaxis
Assay: Rat passive peritoneal anaphylaxis (PPA)
Assay type: in vivo
Details: for Concentration in peritoneal fluid as % of mean of controls (Mean ± SEM, 5-7 rats per group) Dye: Pontamine Sky Blue, OD at 625 nm; for Concentration in peritoneal fluid as % of mean of controls (Mean ± SEM, 5-7 rats per group) Histamine: fluid collected 5 min after challenge
Excerpt: • a) inhibit rat passive peritoneal anaphylaxis; and • b) antagonise the spasmogenic effects of slow reacting substance of anaphylaxis, SRS-A, on isolated guinea pig ileum.
Charles River Sprague Dawley male rats of 250 - 300 g. and Dunkin Hartley male white guinea pigs of 250 - 300 g. were used. v
The method has been described previously. (Ross, Janet W., Smith, H. and Spicer, Barbara A. Increased vascular permeability during passive peritoneal anaphylaxis in the rat. Int. Arch. Allergy appl. Immun., 51, 226, 1976).
Rats were sensitised by giving an intraperitoneal injection of 0.5 ml of Bordetella pertussis vaccine (4 x 10^10 organisms/ml Burroughs Wellcome, London) and a subcutaneous injection of 0.5 ml of an emulsion of 100 mg of ovalbumin (chicken egg albumin, crystallised and lyophilised, grade 3, Sigma, London) in 2 ml of isotonic saline and 3 ml of Freund's incomplete adjuvant (Difco Laboratories, Michigan, USA) .
The rats were bled by cardiac puncture, on day 18, the blood was pooled, and the serum separated, stored at -20°C and thawed only once before use.
Rats were each given an intraperitoneal injection of 2 ml of a 1:5 dilution of the rat anti-serum in isotonic saline. Two hours later 0.3 ml of a 5% solution of Pontamine Sky Blue (Raymond A. Lamb, London) in isotonic saline was injected intravenously, followed by an intraperitoneal injection of the test compound in 1 ml of saline; (control rats received 1 ml of saline); followed 30 seconds later by an intraperitoneal injection of 5 ml of Tyrode's solution containing […]/ml heparin and 0.4 mg/ml of ovalbumin. The concentrations of the compounds were quoted as those in the 6 ml of fluid injected intraperitoneally. Exactly five minutes after challenge the rats were stunned and bled and their peritoneal fluids were collected by,opening their peritoneal cavities over funnels into polycarbonate tubes in ice. The supernatants were separated from the cellular residue by centrifuging at 150 g. for five minutes and were retained for assay of dye and histamine. Any samples obviously contaminated with blood were not used for estimation of dye. Groups of at least five rats were used for each dose of compound and the treatments were randomised.
Dye was assayed within two hours by measurement of optical density (OD) at 625 nm.
For histamine assay 0.5 ml samples of the supernatants were added to 1 ml volumes of 12% trichloracetic acid and stored at -20°C. The deproteinised samples were assayed using an automated spectrofluorimetric system (Technicon Autoanalyser) by a method similar to that of Evans, D.P., Lewis, J.A. and Thomson, D.S.: (An automated fluorimetric assay for the rapid determination of histamine in biological fluids. Life Sci., 12, 327, 1973).

[1] = conc. injected i.p. 2 x 10^-7 M
[2] = conc. injected i.p. 2 x 10^-8 M
[3] = conc. injected i.p. 2 x 10^-5 M
[4] = conc. injected i.p. 2 x 10^-6 M

| SMILES | Concentration in peritoneal fluid as % of mean of controls (Mean ± SEM, 5-7 rats per group) Dye [1] [%] | Concentration in peritoneal fluid as % of mean of controls (Mean ± SEM, 5-7 rats per group) Histamine [1] [%] | Concentration in peritoneal fluid as % of mean of controls (Mean ± SEM, 5-7 rats per group) Dye [2] [%] | Concentration in peritoneal fluid as % of mean of controls (Mean ± SEM, 5-7 rats per group) Histamine [2] [%] | Concentration in peritoneal fluid as % of mean of controls (Mean ± SEM, 5-7 rats per group) Dye [3] [%] | Concentration in peritoneal fluid as % of mean of controls (Mean ± SEM, 5-7 rats per group) Histamine [3] [%] | Concentration in peritoneal fluid as % of mean of controls (Mean ± SEM, 5-7 rats per group) Dye [4] [%] | Concentration in peritoneal fluid as % of mean of controls (Mean ± SEM, 5-7 rats per group) Histamine [4] [%] |
| --- | --- | --- | --- | --- | --- | --- | --- | --- |
| CCCc1c(OCC(O)COc2ccc3c(c2)C(=O)c2nn[nH]c2C3=O)ccc(C(C)=O)c1O (centres unmarked) [Example 4, 6-[3-(4-Acetyl-3-hydroxy-2-n-propylphenoxy)-2-hydroxy-pronoxy]-4,9-dihydro-4,9-dioxo-1H-naphtho[2,3-d]-v-triazole] | 58 ± 4 | 38 ± 4 | 72 ± 11 | 64 ± 11 | – | – | – | – |
| CCCc1c(OCCCOc2cccc3c2C(=O)c2nn[nH]c2C3=O)ccc(C(C)=O)c1O [Example 3, 5-[3-(4-Acetyl-3-hydroxy-2-n-propylphenoxy)-pro^poxy]-4,9-dihydro-4,9-dioxo-1H-naphtho[2,3-d]-v-triazole] | – | – | – | – | 57 ± 4 | 25 ± 3 | 94 ± 8 | 62 ± 11 |
| CCCc1c(OCCCOc2ccc3c(c2)C(=O)c2nn[nH]c2C3=O)ccc(C(C)=O)c1O [Example 1 and 2, 6-[3-(4-Acetyl-3-hydroxy-2-n-propylphenoxy)propoxy]-4,9-dihydro-4,9-dioxo-1H-naphtho[2,3-d]-v-triazole] | 63 ± 5 | 57 ± 11 | – | – | 32 ± 5 | 10 ± 1 | 58 ± 8 | 27 ± 8 |
